Measurements from patent US20230015478A1, “GLP-1 RECEPTOR AGONISTS HAVING IMPROVED PHARMACOLOGICAL AND DRUG DELIVERY PROPERTIES” (priority 2021, published 2023).
Square brackets hold non-standard residues; d marks the D form. Peptide text beside a SMILES is read from it. Bip = N[C@@H](Cc1ccc(-c2ccccc2)cc1)C(=O)O; αMePhe(2-F) = C[C@](N)(Cc1ccccc1F)C(=O)O; Phe(2-F) = N[C@@H](Cc1ccccc1F)C(=O)O; Aib = CC(C)(N)C(=O)O

Molecular target: T1, hGLP1 receptor (Homo sapiens, UniProt P43220)
T1 construct: expressed in transfected cells; host or cells: HEK (human embryonic kidney) cells co-expressing hGLP1 receptor and CRE-Luciferase
T1 sequence (P43220 24-463): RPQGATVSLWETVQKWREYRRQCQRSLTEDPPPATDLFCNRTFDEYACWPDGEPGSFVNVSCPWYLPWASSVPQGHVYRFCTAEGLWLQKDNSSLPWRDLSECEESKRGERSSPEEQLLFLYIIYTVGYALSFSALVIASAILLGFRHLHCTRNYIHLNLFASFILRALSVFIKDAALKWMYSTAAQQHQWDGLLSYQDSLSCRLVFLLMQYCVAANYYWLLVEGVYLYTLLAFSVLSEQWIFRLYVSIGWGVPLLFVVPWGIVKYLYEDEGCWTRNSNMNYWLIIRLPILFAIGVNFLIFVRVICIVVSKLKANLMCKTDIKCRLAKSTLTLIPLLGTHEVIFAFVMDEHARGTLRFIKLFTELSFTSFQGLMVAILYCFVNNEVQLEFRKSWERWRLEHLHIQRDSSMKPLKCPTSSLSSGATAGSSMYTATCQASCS
Test: cAMP HTRF agonist assay in HEK cells co-expressing hGLP1 receptor and CRE-Luciferase
Type: cell-based
Details: Table 2; cell marked (0% albumin); read-out: cAMP EC50, nM (0% albumin)
Protocol: Human embryonic kidney cells (HEK) co-expressing the hGLP1 receptor and CRE-Luciferase construct were used to determine agonist potency in this assay. The cells were thawed briefly at 37° C., transferred to a sterile tube and re-suspended in complete media at 37° C. Cells were centrifuged at 1000 rpm for 5 minutes and cells collected; cells were re-suspended in assay buffer consisting of DPBS (GIBCO) with 500 μM of the phosphodiesterase inhibitor IBMX. […] The optimal cell density was determined to be 1000 cells/well; cells were added to wells in 384-well plates containing appropriate pre-prepared dilutions of compounds (test peptides or reference compound exendin-4), sealed and incubated with CO2 for 30 min. Test peptide solutions were diluted from 10 mM stock solutions; for most peptides an initial run was performed in duplicate from a maximal concentration of 1.0 μM, with 11 concentrations tested for each peptide using serial 1:3 dilution from this maximal concentration. […] The agonist assay was a homogeneous time-resolved fluorescence (HTRF) assay (Cisbio).
Following incubation of the cells for 30 minutes with test or reference peptides, 5 μL of the cAMP acceptor cAMP-d2, prepared previously as a working solution from frozen stock (1:20 dilution), was added to each well of the assay plate, along with 5 μL of anti-cAMP antibody-cryptate working solution (diluted 1:20 from frozen stock). The wells were incubated for 1 hour at room temperature, and fluorescence was then read at 665 and 615 nm with an Envision reader with TRF laser. Data were saved and analyzed using Prism software (GraphPad). Concentration-response analysis was performed using 4-parameter logistic fits of the resulting data, and EC50 values obtained for each test and reference compound.

Structure (SMILES) | EC50
C[C@H](NC(=O)[C@H](CCC(=O)O)NC(=O)C(C)(C)NC(=O)[C@@H](N)Cc1c[nH]cn1)C(=O)N[C@H](C(=O)N[C@@H](Cc1ccccc1F)C(=O)N[C@H](C(=O)N[C@@H](CO)C(=O)N[C@@H](CC(=O)O)C(=O)N[C@@H](Cc1ccc(-c2ccccc2)cc1)C(=O)N[C@@H](Cc1ccc(-c2ccccc2)cc1)C(N)=O)[C@@H](C)O)[C@@H](C)O [3-23, H2N-His-Aib-Glu-Ala-Thr-Phe(2F)-Thr-Ser-Asp-Bip-Bip-C(O)NH2] (H-H[Aib]EAT[Phe(2-F)]TSD[Bip][Bip]-NH2) | 347 nM

Same assay, conditions: cAMP EC50, nM (0.1% albumin), Table 2; 0.1% albumin

Structure (SMILES) | EC50
C[C@H](NC(=O)[C@@H](N)Cc1c[nH]cn1)C(=O)N[C@@H](CCC(=O)O)C(=O)NCC(=O)N[C@H](C(=O)N[C@@H](Cc1ccccc1F)C(=O)N[C@H](C(=O)N[C@@H](CO)C(=O)N[C@@H](CC(=O)O)C(=O)N[C@@H](Cc1ccc(-c2ccccc2)cc1)C(=O)N[C@@H](Cc1ccc(-c2ccccc2)cc1)C(N)=O)[C@@H](C)O)[C@@H](C)O [3-21, H2N-His-Ala-Glu-Gly-Thr-Phe(2-F)-Thr-Ser-Asp-Bip-Bip-C(O)NH2] (H-HAEGT[Phe(2-F)]TSD[Bip][Bip]-NH2) | 0.29 nM
C[C@H](NC(=O)C(C)(C)NC(=O)[C@@H](N)Cc1c[nH]cn1)C(=O)NCC(=O)N[C@H](C(=O)N[C@@H](Cc1ccccc1F)C(=O)N[C@H](C(=O)N[C@@H](CO)C(=O)N[C@@H](CC(=O)O)C(=O)N[C@@H](Cc1ccc(-c2ccccc2)cc1)C(=O)N[C@@H](Cc1ccc(-c2ccccc2)cc1)C(N)=O)[C@@H](C)O)[C@@H](C)O [3-22, H2N-His-Aib-Ala-Gly-Thr-Phe(2-F)-Thr-Ser-Asp-Bip-Bip-C(O)NH2] (H-H[Aib]AGT[Phe(2-F)]TSD[Bip][Bip]-NH2) | 20.3 nM
C[C@H](NC(=O)CNC(=O)[C@H](CCC(=O)O)NC(=O)C(C)(C)NC(=O)[C@@H](N)Cc1c[nH]cn1)C(=O)N[C@@H](Cc1ccccc1F)C(=O)N[C@H](C(=O)N[C@@H](CO)C(=O)N[C@@H](CC(=O)O)C(=O)N[C@@H](Cc1ccc(-c2ccccc2)cc1)C(=O)N[C@@H](Cc1ccc(-c2ccccc2)cc1)C(N)=O)[C@@H](C)O [3-24, H2N-His-Aib-Glu-Gly-Ala-Phe(2-F)-Thr-Ser-Asp-Bip-Bip-C(O)NH2] (H-H[Aib]EGA[Phe(2-F)]TSD[Bip][Bip]-NH2) | 28.1 nM
C[C@H](NC(=O)[C@H](Cc1ccccc1F)NC(=O)[C@@H](NC(=O)CNC(=O)[C@H](CCC(=O)O)NC(=O)C(C)(C)NC(=O)[C@@H](N)Cc1c[nH]cn1)[C@@H](C)O)C(=O)N[C@@H](CO)C(=O)N[C@@H](CC(=O)O)C(=O)N[C@@H](Cc1ccc(-c2ccccc2)cc1)C(=O)N[C@@H](Cc1ccc(-c2ccccc2)cc1)C(N)=O [3-25, H2N-His-Aib-Glu-Gly-Thr-Phe(2-F)-Ala-Ser-Asp-Bip-Bip-C(O)NH2] (H-H[Aib]EGT[Phe(2-F)]ASD[Bip][Bip]-NH2) | 79.1 nM
C[C@H](NC(=O)[C@@H](NC(=O)[C@H](Cc1ccccc1F)NC(=O)[C@@H](NC(=O)CNC(=O)[C@H](CCC(=O)O)NC(=O)C(C)(C)NC(=O)[C@@H](N)Cc1c[nH]cn1)[C@@H](C)O)[C@@H](C)O)C(=O)N[C@@H](CC(=O)O)C(=O)N[C@@H](Cc1ccc(-c2ccccc2)cc1)C(=O)N[C@@H](Cc1ccc(-c2ccccc2)cc1)C(N)=O [3-26, H2N-His-Aib-Glu-Gly-Thr-Phe(2-F)-Thr-Ala-Asp-Bip-Bip-C(O)NH2] (H-H[Aib]EGT[Phe(2-F)]TAD[Bip][Bip]-NH2) | 18.9 nM
C[C@H](NC(=O)[C@H](CO)NC(=O)[C@@H](NC(=O)[C@H](Cc1ccccc1F)NC(=O)[C@@H](NC(=O)CNC(=O)[C@H](CCC(=O)O)NC(=O)C(C)(C)NC(=O)[C@@H](N)Cc1c[nH]cn1)[C@@H](C)O)[C@@H](C)O)C(=O)N[C@@H](Cc1ccc(-c2ccccc2)cc1)C(=O)N[C@@H](Cc1ccc(-c2ccccc2)cc1)C(N)=O [3-27, H2N-His-Aib-Glu-Gly-Thr-Phe(2-F)-Thr-Ser-Ala-Bip-Bip-C(O)NH2] (H-H[Aib]EGT[Phe(2-F)]TSA[Bip][Bip]-NH2) | 67 nM
C[C@H](NC(=O)[C@H](CC(=O)O)NC(=O)[C@H](CO)NC(=O)[C@@H](NC(=O)[C@H](Cc1ccccc1F)NC(=O)[C@@H](NC(=O)CNC(=O)[C@H](CCC(=O)O)NC(=O)C(C)(C)NC(=O)[C@@H](N)Cc1c[nH]cn1)[C@@H](C)O)[C@@H](C)O)C(=O)N[C@@H](Cc1ccc(-c2ccccc2)cc1)C(N)=O [3-28, H2N-His-Aib-Glu-Gly-Thr-Phe(2-F)-Thr-Ser-Asp-Ala-Bip-C(O)NH2] (H-H[Aib]EGT[Phe(2-F)]TSDA[Bip]-NH2) | > 1000 nM
C[C@H](NC(=O)[C@H](Cc1ccc(-c2ccccc2)cc1)NC(=O)[C@H](CC(=O)O)NC(=O)[C@H](CO)NC(=O)[C@@H](NC(=O)[C@H](Cc1ccccc1F)NC(=O)[C@@H](NC(=O)CNC(=O)[C@H](CCC(=O)O)NC(=O)C(C)(C)NC(=O)[C@@H](N)Cc1c[nH]cn1)[C@@H](C)O)[C@@H](C)O)C(N)=O [3-29, H2N-His-Aib-Glu-Gly-Thr-Phe(2-F)-Thr-Ser-Asp-Bip-Ala-C(O)NH2] | > 1000 nM

Same assay, conditions: cAMP EC50, nM (0.1% albumin), Table 3; 0.1% albumin

Structure (SMILES) | EC50
C[C@@H](O)[C@H](NC(=O)CNC(=O)[C@H](CCC(=O)O)NC(=O)C(C)(C)NC(=O)C(C)(C)N)C(=O)N[C@@](C)(Cc1ccccc1F)C(=O)N[C@H](C(=O)N[C@@H](CO)C(=O)N[C@@H](CC(=O)O)C(=O)N[C@@H](Cc1ccc(-c2ccccc2)cc1)C(=O)N[C@@H](Cc1ccc(-c2ccccc2)cc1)C(N)=O)[C@@H](C)O [3-30, H2N-Aib-Aib-Glu-Gly-Thr-αMePhe(2-F)-Thr-Ser-Asp-Bip-Bip-C(O)NH2] (H-[Aib][Aib]EGT[αMePhe(2-F)]TSD[Bip][Bip]-NH2) | 2.7 nM
C[C@@H](O)[C@H](NC(=O)CNC(=O)C(C)(C)NC(=O)C(C)(C)NC(=O)[C@@H](N)Cc1c[nH]cn1)C(=O)N[C@@](C)(Cc1ccccc1F)C(=O)N[C@H](C(=O)N[C@@H](CO)C(=O)N[C@@H](CC(=O)O)C(=O)N[C@@H](Cc1ccc(-c2ccccc2)cc1)C(=O)N[C@@H](Cc1ccc(-c2ccccc2)cc1)C(N)=O)[C@@H](C)O [3-31, H2N-His-Aib-Aib-Gly-Thr-αMePhe(2-F)-Thr-Ser-Asp-Bip-Bip-C(O)NH2] (H-H[Aib][Aib]GT[αMePhe(2-F)]TSD[Bip][Bip]-NH2) | 4.9 nM
C[C@@H](O)[C@H](NC(=O)C(C)(C)NC(=O)[C@H](CCC(=O)O)NC(=O)C(C)(C)NC(=O)[C@@H](N)Cc1c[nH]cn1)C(=O)N[C@@](C)(Cc1ccccc1F)C(=O)N[C@H](C(=O)N[C@@H](CO)C(=O)N[C@@H](CC(=O)O)C(=O)N[C@@H](Cc1ccc(-c2ccccc2)cc1)C(=O)N[C@@H](Cc1ccc(-c2ccccc2)cc1)C(N)=O)[C@@H](C)O [3-32, H2N-His-Aib-Glu-Aib-Thr-αMePhe(2-F)-Thr-Ser-Asp-Bip-Bip-C(O)NH2] (H-H[Aib]E[Aib]T[αMePhe(2-F)]TSD[Bip][Bip]-NH2) | 15.8 nM
C[C@@H](O)[C@H](NC(=O)[C@](C)(Cc1ccccc1F)NC(=O)C(C)(C)NC(=O)CNC(=O)[C@H](CCC(=O)O)NC(=O)C(C)(C)NC(=O)[C@@H](N)Cc1c[nH]cn1)C(=O)N[C@@H](CO)C(=O)N[C@@H](CC(=O)O)C(=O)N[C@@H](Cc1ccc(-c2ccccc2)cc1)C(=O)N[C@@H](Cc1ccc(-c2ccccc2)cc1)C(N)=O [3-33, H2N-His-Aib-Glu-Gly-Aib-αMePhe(2-F)-Thr-Ser-Asp-Bip-Bip-C(O)NH2] (H-H[Aib]EG[Aib][αMePhe(2-F)]TSD[Bip][Bip]-NH2) | 7.3 nM
C[C@@H](O)[C@H](NC(=O)CNC(=O)[C@H](CCC(=O)O)NC(=O)C(C)(C)NC(=O)[C@@H](N)Cc1c[nH]cn1)C(=O)N[C@@](C)(Cc1ccccc1F)C(=O)NC(C)(C)C(=O)N[C@@H](CO)C(=O)N[C@@H](CC(=O)O)C(=O)N[C@@H](Cc1ccc(-c2ccccc2)cc1)C(=O)N[C@@H](Cc1ccc(-c2ccccc2)cc1)C(N)=O [3-35, H2N-His-Aib-Glu-Gly-Thr-αMePhe(2-F)-Aib-Ser-Asp-Bip-Bip-C(O)NH2] (H-H[Aib]EGT[αMePhe(2-F)][Aib]SD[Bip][Bip]-NH2) | 91.4 nM
C[C@@H](O)[C@H](NC(=O)CNC(=O)[C@H](CCC(=O)O)NC(=O)C(C)(C)NC(=O)[C@@H](N)Cc1c[nH]cn1)C(=O)N[C@@](C)(Cc1ccccc1F)C(=O)N[C@H](C(=O)NC(C)(C)C(=O)N[C@@H](CC(=O)O)C(=O)N[C@@H](Cc1ccc(-c2ccccc2)cc1)C(=O)N[C@@H](Cc1ccc(-c2ccccc2)cc1)C(N)=O)[C@@H](C)O [3-36, H2N-His-Aib-Glu-Gly-Thr-αMePhe(2-F)-Thr-Aib-Asp-Bip-Bip-C(O)NH2] (H-H[Aib]EGT[αMePhe(2-F)]T[Aib]D[Bip][Bip]-NH2) | 150 nM
C[C@@H](O)[C@H](NC(=O)CNC(=O)[C@H](CCC(=O)O)NC(=O)C(C)(C)NC(=O)[C@@H](N)Cc1c[nH]cn1)C(=O)N[C@@](C)(Cc1ccccc1F)C(=O)N[C@H](C(=O)N[C@@H](CO)C(=O)NC(C)(C)C(=O)N[C@@H](Cc1ccc(-c2ccccc2)cc1)C(=O)N[C@@H](Cc1ccc(-c2ccccc2)cc1)C(N)=O)[C@@H](C)O [3-37, H2N-His-Aib-Glu-Gly-Thr-αMePhe(2-F)-Thr-Ser-Aib-Bip-Bip-C(O)NH2] (H-H[Aib]EGT[αMePhe(2-F)]TS[Aib][Bip][Bip]-NH2) | 91.6 nM
